Read-outs that look alike come from different tables or passages of the source.
Legend:
[1] = system: P-gp (MDR1); test: MDCK-MDR1 cell permeability and efflux; assay type: in vitro ADME; details: dog; for efflux ratio: MDCK-MDR1, read-out: MDCK-MDR1 efflux ratio (ER)
[2] = target: T1, Notum(81–451 Cys330Ser) (Homo sapiens, UniProt Q6P988, C330S); test: Notum biochemical OPTS assay (carboxylesterase activity); details: for IC50: OPTS substrate, 1 h incubation, geometric mean ± s.d.
T1 sequence (Q6P988 81-451 C330S): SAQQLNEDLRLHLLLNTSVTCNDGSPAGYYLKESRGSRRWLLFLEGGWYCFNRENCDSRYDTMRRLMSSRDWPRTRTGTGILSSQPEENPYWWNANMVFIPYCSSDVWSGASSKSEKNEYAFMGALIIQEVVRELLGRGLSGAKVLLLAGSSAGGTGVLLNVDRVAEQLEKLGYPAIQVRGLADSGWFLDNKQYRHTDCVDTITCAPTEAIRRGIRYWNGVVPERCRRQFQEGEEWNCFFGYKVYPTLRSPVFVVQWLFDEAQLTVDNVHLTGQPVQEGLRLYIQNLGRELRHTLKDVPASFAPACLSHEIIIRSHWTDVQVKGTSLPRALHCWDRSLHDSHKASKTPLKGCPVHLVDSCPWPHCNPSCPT

[3] = Metabolic stability in mouse liver microsomes (MLM); assay type: in vitro ADME; details: mouse liver microsomes
[4] = MDCK-MDR1, A to B direction, read-out: MDCK-MDR1 AB Papp
[5] = MDCK-MDR1, B to A direction, read-out: MDCK-MDR1 BA Papp

## CCN1CCN(C(=O)CSc2ncnc3sc(C)c(Cl)c23)CC1=O [Compound 5h]
[1]; [4]
  Papp: 1.1 ×10⁻⁶ cm/s
[1]; [5]
  Papp: 37 ×10⁻⁶ cm/s
[1]
  efflux ratio: 34
[2]
  IC50: 0.0042 ± 0.0004 µM
[3]
  MLM Cli: 100 µL/min/mg

## Cc1sc2ncnc(SCC(=O)N3CNC(=O)C3)c2c1Cl [Compound 5e]
[1]; [4]
  Papp: 14 ×10⁻⁶ cm/s
[1]; [5]
  Papp: 82 ×10⁻⁶ cm/s
[1]
  efflux ratio: 5.9
[2]
  IC50: 0.0027 ± 0.0005 µM
[3]
  MLM Cli: 65 µL/min/mg

## Cc1sc2ncnc(SCC(=O)N3CC(=O)N(CC(F)(F)F)C3)c2c1Cl [Compound 5o]
[2]
  IC50: 0.0039 ± 0.0004 µM
[3]
  MLM Cli: 140 µL/min/mg

## Cc1sc2ncnc(SCC(=O)N3CCn4c(nnc4C(F)(F)F)C3)c2c1Cl [Compound 5s]
[1]; [4]
  Papp: 15 ×10⁻⁶ cm/s
[1]; [5]
  Papp: 85 ×10⁻⁶ cm/s
[1]
  efflux ratio: 5.7
[2]
  IC50: 0.038 ± 0.003 µM
[3]
  MLM Cli: 93 µL/min/mg

## Cc1nc2n(n1)CCN(C(=O)CSc1ncnc3sc(C)c(Cl)c13)C2 [Compound 5u]
[1]; [4]
  Papp: 17 ×10⁻⁶ cm/s
[1]; [5]
  Papp: 44 ×10⁻⁶ cm/s
[1]
  efflux ratio: 2.6
[2]
  IC50: 0.011 ± 0.006 µM
[3]
  MLM Cli: 37 µL/min/mg

## Cc1sc2ncnc(SCC(=O)N3CC(=O)NC(C)(C)C3)c2c1Cl [Compound 5j]
[2]
  IC50: 0.45 ± 0.2 µM

## Cc1sc2ncnc(SCC(=O)N3CC(=O)NC(C)C3)c2c1Cl (stereo not drawn) [Compound 5i]
[2]
  IC50: 0.033 ± 0.005 µM

## Cc1c(C#N)sc2ncnc(SCC(=O)O)c12 [Compound 11, 2-((6-cyano-5-methylthieno[2,3-d]pyrimidin-4-yl)thio)acetic acid]
[2]
  IC50: 0.025 ± 0.004 µM

## Cc1c(C(F)(F)F)sc2ncnc(SCC(=O)O)c12 [Compound 9]
[2]
  IC50: 0.001 ± 0.0004 µM

## Cc1cc2c(SCC(=O)O)ncnc2s1 [Compound 6]
[2]
  IC50: 0.79 ± 0.07 µM

## N#Cc1sc2c(SCC(=O)O)ncnc2c1C1CC1 [Compound 12]
[2]
  IC50: 0.0081 µM

## Cc1sc2ncnc(SCC(=O)O)c2c1C(F)(F)F [Compound 10]
[2]
  IC50: 0.0039 ± 0.0007 µM

## Cc1nn(C)c2ncnc(SCC(=O)O)c12 [Compound 17]
[2]
  IC50: 1.1 µM
[2]; relative to 1
  fold weaker Notum inhibition than 1: 1000 fold

## CCN1CN(C(=O)CSc2ncnc3sc(C)c(Cl)c23)CC1=O [Compound 5m]
[1]; [4]
  Papp: 35 ×10⁻⁶ cm/s
[1]; [5]
  Papp: 51 ×10⁻⁶ cm/s
[1]
  efflux ratio: 1.5
[2]
  IC50: 0.0026 ± 0.0001 µM
[3]
  MLM Cli: 43 µL/min/mg

## Cc1sc2ncnc(SCC(=O)N3CCOCC3)c2c1Cl [Compound 5c]
[2]
  IC50: 0.069 ± 0.01 µM

## Cn1ccc2c(SCC(=O)O)ncnc21 [Compound 15, 2-((7-methyl-7H-pyrrolo[2,3-d]pyrimidin-4-yl)thio)acetic acid]
[2]
  IC50: 15 µM

## Cc1sc2ncnc(SCC(=O)N3CCn4c(C)nnc4C3)c2c1Cl [Compound 5p]
[1]; [4]
  Papp: 0.5 ×10⁻⁶ cm/s
[1]; [5]
  Papp: 51 ×10⁻⁶ cm/s
[1]
  efflux ratio: > 100
[2]
  IC50: 0.016 ± 0.002 µM
[3]
  MLM Cli: 15 µL/min/mg

## Cc1sc2ncnc(SCC(=O)N3CC(=O)N4CCCC4C3)c2c1Cl (stereo not drawn) [Compound 5k]
[1]; [4]
  Papp: 7 ×10⁻⁶ cm/s
[1]; [5]
  Papp: 51 ×10⁻⁶ cm/s
[1]
  efflux ratio: 7.3
[2]
  IC50: 0.02 ± 0.004 µM
[3]
  MLM Cli: 63 µL/min/mg

## Cc1oc2ncnc(SCC(=O)O)c2c1C [Compound 18]
[2]
  IC50: 0.05 ± 0.014 µM
[2]; relative to thiophene analogue 7
  fold weaker Notum inhibition than 7: 10 fold

## Cc1sc2ncnc(SCC(=O)N3CC(=O)N(C4CC4)C3)c2c1Cl [Compound 5n]
[2]
  IC50: 0.0038 ± 0.0013 µM
[3]
  MLM Cli: 49 µL/min/mg

## O=C(O)CSc1ncnc2c1ccn2Cc1ccccc1 [Compound 16, 2-((7-benzyl-7H-pyrrolo[2,3-d]pyrimidin-4-yl)thio)acetic acid]
[2]
  IC50: 50 µM

## Cc1sc2ncnc(SCC(=O)N3CCCCC3)c2c1Cl [Compound 5b]
[2]
  IC50: 0.22 ± 0.012 µM

## Cc1nc(SCC(=O)O)c2c(C)c(C)sc2n1 [Compound 8]
[2]
  IC50: 2.1 µM

## O=C(O)CSc1ncnc2[nH]ccc12 [Compound 13]
[2]
  IC50: 77 µM

## Cc1sc2ncnc(SCC(=O)N(C)C)c2c1Cl [Compound 5a]
[2]
  IC50: 0.015 ± 0.006 µM
[3]
  MLM Cli: 360 µL/min/mg

## O=C(O)CSc1ncnc2[nH]cc(Cl)c12 [Compound 14]
[2]
  IC50: 20 µM

## Cc1c(C(F)(F)F)oc2ncnc(SCC(=O)O)c12 [Compound 19]
[2]
  IC50: 0.0032 ± 0.0005 µM
